US20080187492A1, “Drosophila Models For Diseases Affecting Learning and Memory” (priority 2004, published 2008)

Key:
[1] = tested on: FS mutant flies; experiment: Fusion of mushroom body β-lobes (anti-FasII staining), FS mutant flies; assay type: in vivo, Drosophila melanogaster
Description: Histological analysis was performed on relevant experimental flies, showing the fusion of MB beta lobes and the rescue of these fusions with in mGluR antagonists (FIG. 18). Brains from (0-1 day old) dfmr1 mutant adult flies were stained with anti-fasciclin II (ID4) and a rhodamine-coupled secondary antibody. The α, β, & γ lobes of the MBs are clearly labeled with this antibody and appear normal in this mutant brain (Panel A). Panels B-E show a higher magnification of the β-lobes at the midline. […] Panels C-E show mutants brains displaying a C) “mild” (arrowhead), D) “moderate” and E) “severe” level of midline crossing by the […]. […] WT rescue flies are dfmr1 mutants containing one copy of the dfmr1 genomic rescue fragment. The number of brains examined are listed below each group.
Rescue of β-lobe fusions with mGluR antagonists. Previously it has been established that the mushroom bodies are involved in learning and memory in the conditioned courtship and the odor shock classical conditioning paradigms in Drosophila (deBelle and Heisenberg, 1994; Joiner and Griffith, 1999; McBride et al, 1999; Zars et al, 2000; Paschel and Preat, 2001). […] When labeled with anti-FasII, we observed a range of β-lobe fusion defects in brains derived from 0-2 day old FS mutant flies, but not Rescue flies (FIG. 18).
Since treatment of FS mutant flies with mGluR antagonists rescued the memory defects observed in these flies, we examined the effect of these treatments on the β-lobe fusion defect to determine if the rescue of the two phenotypes was correlated. We raised FS mutant flies in food containing 8.6 mM MPEP, 400 nM LY341495 or 350 mM MTPG, then examined the morphology of the MBs in 0-2 day old adults. […] For example, mild fusion defects were only observed in 18% of FS mutant brains raised in food containing 400 nM LY341495 (FIG. 18F). No effect was observed when these drugs were fed to Rescue flies during development (not shown).
If this is true, then we would expect that the behavioral rescue obtained by treating FS mutant flies these drugs during adulthood alone would lead to a similar morphological rescue. To test this hypothesis, we treated FS mutant flies with 8.6 mM MPEP for four days starting at eclosion, and then transferred them to normal food for 24 hours before examining the morphology of their MBs. For comparison we also examined the MBs of flies left in control food for five days. […] Thus it appears that rescue of this morphological defect is not absolutely necessary for the rescue of the memory defects observed in the dfmr1 mutant flies.

[2] = tested on: FS flies lacking dfmr1 activity; experiment: Short-term memory (60 mins) with mated female targets, FS flies; assay type: in vivo, Drosophila melanogaster; settings: for short-term memory, mated female target: 86 μM MPEP, 400 nM LY341495, 573 μM MPPG, 348 μM MTPG; for memory at 60 minutes post training, mated female target: 5 day old, 8.6 mM MPEP, 400 nM LY341495
Description: Effects of drug treatment on short-term memory (60 mins) in flies lacking dfmr1 activity with mated female targets. Short-term (60 min.) memory was measured in Rescue and FS flies that were either fed control food or underwent various drug treatments as described below. Short-term memory was measured by placing a trained male in a holding chamber for 60 minutes (after being trained for one hour with a previously mated female), then subsequently placing him in a testing chamber with a mated female target for a ten-minute courtship interval (C.I.). This C.I. was compared to the C.I. obtained for naïve courtship of a previously mated female, i.e., C.I. during the first 10 minutes of the training session with a previously mated female. Additionally, for reference the C.I. during the last 10 minutes of the training period was also determined. Numbers of flies are indicated above each bar for all groups. The levels of significance are indicated as follows; *=p<0.05; **=p<0.005; ***=p<0.0001.
Restoration of short-term memory with mGluR antagonists. To establish that the failure to observe memory was not due to a problem with recognizing or processing the appropriate cues from the virgin female target, we used a modified version of the conditioned courtship paradigm where the male is paired with a mated female target subsequent to training (Kane et al., 1997; Joiner and Griffith, 1997; Joiner and Griffith, 1999; Kamashev et al., 1999). Again, with pharmacologic treatment it is necessary to utilize more then one compound to confirm the specificity of the target, so in this case we used four mGluR antagonists. […] It is also important to note that the robust deficit in synaptic plasticity in FS flies, with regard to memory, is a critical extension of the previous models of Fragile X syndrome in model organisms, since this is one of the most prominent aspects of the human disorder. Furthermore, we have shown that antagonism of the mGluRs can restore synaptic plasticity in the Drosophila model of Fragile X syndrome.

[3] = tested on: Rescue (dFMR1-3+wild type rescue fragment) flies; experiment: Conditioned courtship: short-term memory at 60 minutes, virgin female target, Rescue flies; assay type: in vivo, Drosophila melanogaster; settings: for short term memory: MPEP (20 μg/ml), NaCl (5 and 50 mM), LY341495 (400 nM); for short-term memory at 60 minutes after training: adulthood or both
Description: (§1) Short-term memory. The model was further extended to encompass short-term memory at 60 minutes after training. After the one hour training session with a previously mated female, the female is removed and the male is placed in a holding chamber for 60 minutes, then subsequently placed in a testing chamber with a virgin female target to assess short-term memory (FIG. 4C). […] CT-CT FS flies court just as vigorously at 60 minutes after training as naive CT-CT FS flies. […] The FS groups that were treated with MPEP in development alone, adulthood alone or in both development and adulthood display experience dependent reduction of courtship activity at 60 minutes after training when compared to group matched naives M-M FS, p<0.0001, CT-M FS, p<0.0001 and M-CT FS, p<0.0001. […] Additionally, flies were tested for ability to discriminate between virgin and previously mated females (FIG. 4D).
In order to examine short-term memory at 60 minutes after training, after the one hour training session with a previously mated female, the female is removed and the male is placed in a holding chamber for 60 minutes, then subsequently placed in a testing chamber with a virgin female (FIG. 9B). […] CT-CT FS flies court just as vigorously at 60 minutes after training as naive CT-CT FS flies. […] The FS groups that were treated with MPEP in development alone, adulthood alone or in both development and adulthood display experience dependent reduction of courtship activity at 60 minutes after training when compared to group matched naives M-M FS.

[4] = tested on: wild type human and Drosophila tau expressing flies; experiment: Short term memory in tau over expressing Drosophila Alzheimer's model; assay type: in vivo; settings: for age dependent short term memory deficit: at 30 and 40 days
Excerpt: Two Drosophila Alzheimer's models are particularly useful. One uses over expression of tau (either human wild type or Drosophila wild type with a myc tag) driven in the mushroom bodies. Flies overexpressing tau have normal memory at 5 days of age (young adults) but an age dependent impairment of short-term and long term memory by 26 days of age.

[5] = tested on: Rescue (dFMR1-3+wild type rescue fragment) flies; experiment: Discrimination between virgin and previously mated females, Rescue flies; assay type: in vivo, Drosophila melanogaster
Description: as §1
Flies were also tested for ability to discriminate between virgin and previously mated females in FIG. 9C.

[6] = raised in food containing 8.6 mM MPEP, 400 nM LY341495 or 350 mM MTPG, 0-2 day old adults

| Structure (SMILES) | β-lobe fusion defects [1, 6] | short-term memory, mated female target [2] | memory at 60 minutes post training, mated female target [2] | FS mutant brains with (mild) fusion defects ([1]; raised in food containing 400 nM LY341495, untreated roughly 70%) | short term memory ([3]; 5 day old) | age dependent short term memory deficit [4] | short term memory ([4]; treatment from day 30 to day 39, at 40 days of age) | β-lobe fusion defects ([1]; 8.6 mM MPEP for four days starting at eclosion (adulthood only)) | short-term memory at 60 minutes after training ([3]; 20-day-old, MPEP in development) | short-term memory at 60 minutes after training ([3]; 5 day old, MPEP 200 μg/ml in development) | time courting virgin female compared to previously mated female (discrimination) ([5]; 20-day-old, MPEP 200 μg/ml in development and adulthood (M-M)) | ability to discriminate between virgin and previously mated females ([5]; 5 day old, MPEP 200 μg/ml in adulthood only (CT-M)) |
| --- | --- | --- | --- | --- | --- | --- | --- | --- | --- | --- | --- | --- |
| CC(N)(C(=O)O)c1ccc(-c2nnn[nH]2)cc1 (racemic) [MTPG, (RS)-α-methyl-4-tetrazolylphenylglycine] | rescue of the β-lobe fusion defects | demonstrated restoration of short-term memory | demonstrate memory at 60 minutes post training | – | – | – | – | – | – | – | – | – |
| N[C@](CC1c2ccccc2Oc2ccccc21)(C(=O)O)[C@H]1C[C@@H]1C(=O)O [LY341495, (2S)-2-amino-2-[(1S,2S)-2-carboxycycloprop-1-yl]-3-(xanth-9-yl) propionic acid] | rescue of the β-lobe fusion defects | demonstrated restoration of short-term memory | demonstrate memory at 60 minutes post training | 18% | did not affect short term memory | can rescue the age dependent short term memory deficit | can restore short term memory | – | – | – | – | – |
| Cc1cccc(C#Cc2ccccc2)n1 [MPEP, 2-methyl-6-(phenylethynyl)pyridine] | rescue of the β-lobe fusion defects | demonstrated restoration of short-term memory | demonstrate memory at 60 minutes post training | – | did not affect short term memory | can rescue the age dependent short term memory deficit | – | did not observe any rescue of the β-lobe fusion defects | does not adversely affect short-term memory | does not adversely affect short-term memory | spent significantly more time courting virgin female targets | spend similar amounts of time courting previously mated female targets and virgin female targets |
